Experimental data published in BindingDB's records for PubMed 35176561 (Shenyang Pharmaceutical University, 2022).

Molecular target: Amyloid-beta precursor protein (Homo sapiens, UniProt P05067)
Experiment: Inhibition of amyloid beta 42 (unknown origin) secretion

Sequence of Amyloid-beta precursor protein (P05067 whole entry): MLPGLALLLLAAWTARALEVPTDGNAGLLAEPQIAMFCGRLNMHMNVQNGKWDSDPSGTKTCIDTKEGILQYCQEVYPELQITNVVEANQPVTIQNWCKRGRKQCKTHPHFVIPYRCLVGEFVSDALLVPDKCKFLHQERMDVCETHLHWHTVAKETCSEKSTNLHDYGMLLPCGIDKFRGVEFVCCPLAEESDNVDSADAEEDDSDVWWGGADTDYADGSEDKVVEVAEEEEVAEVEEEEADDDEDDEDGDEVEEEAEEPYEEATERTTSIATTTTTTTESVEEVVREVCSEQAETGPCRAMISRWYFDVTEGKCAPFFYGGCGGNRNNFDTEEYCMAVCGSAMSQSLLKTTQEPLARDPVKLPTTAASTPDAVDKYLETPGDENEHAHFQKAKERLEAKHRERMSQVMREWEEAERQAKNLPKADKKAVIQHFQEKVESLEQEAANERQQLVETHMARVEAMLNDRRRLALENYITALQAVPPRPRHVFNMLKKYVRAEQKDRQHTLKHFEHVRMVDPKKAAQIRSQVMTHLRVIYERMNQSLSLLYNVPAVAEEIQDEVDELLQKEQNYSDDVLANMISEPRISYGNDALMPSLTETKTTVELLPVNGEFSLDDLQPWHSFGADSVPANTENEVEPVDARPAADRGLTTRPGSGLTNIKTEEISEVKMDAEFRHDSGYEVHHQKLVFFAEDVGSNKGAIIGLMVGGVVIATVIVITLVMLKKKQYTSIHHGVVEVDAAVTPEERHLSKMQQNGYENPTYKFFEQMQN

Row | IC50 [nM] | SMILES
1 | 5.3 | COc1nc(-c2cc(C)c(N[C@@H](C)c3cc(F)c(F)c(F)c3)nn2)ccc1-n1cnc(C)c1
2 | 4.1 | COc1nc(-c2cc(C)c(N[C@@H](C)c3cc(F)cc(F)c3)nn2)ccc1-n1cnc(C)c1
